Assay results reported in patent US20110144565A1, “COMBINATION OF A TILIROSIDE AND A PEPTIDE” (LABORATOIRES CLARINS, priority 2008, published 2011).

Test system: collagen type I synthesis in normal adult human fibroblasts
Experiment: Immunolocalization of collagen type I in normal adult human fibroblasts (immunofluorescence, image analysis)
Assay type: cell-based
Settings: 2×10^−3% palmitoyl lysine-valine-5 diaminohydroxybutyrate (P1), 72 hours, Anova
Protocol: The fibroblasts were seeded into 6-well plates with a glass coverslip in a proportion of 70 000 cells per dish, in MEM (Minimum Essential Medium). […] Each cell layer was then rinsed and fixed with methanol (−20° C.) before visualizing the collagen type I by immunofluorescence. […] The incubation time between each antibody is 1 hour. The cell nuclei are visualized by means of Dapi labeling. The coverslips are mounted on glass slides and then observed under a fluorescence microscope (Nikon Eclipse 50i). Photographs are taken of several fields of the cell population. The TRITC fluorescence images indicate the regions of localization of collagen type I. The DAPI fluorescence images indicate the cell nuclei and therefore the number of cells per field. The photographic images are analyzed using the Lucia image analysis software. The intensity of collagen labeling was observed on 14 and 15 photographic images according to the conditions. This fluorescence intensity is related to the number of cells per image. The differences in mean between the populations were studied by analysis of variance (Anova). This method uses measurements of variance in order to determine the significant or nonsignificant nature of the differences in mean measured on the populations.

## palmitoyl lysine-valine-5 diaminohydroxybutyrate
  collagen type I labeling (fluorescence intensity related to the number of cells) compared with the nontreated control: statistically significant (p<0.0001) increase in collagen
